The nature of series [1]: Human clinical biocomparison study: oral absorption of Formulation 1 with and without pH-raising medication. The following applies: in vivo, 100 mg, healthy subjects. The protocol:
FIG. 1 outlines the process used to make Formulation 1.
The oral absorption obtained from Formulation 1 with and without pH-modifying medications was evaluated as part of human clinical study. Formulation 1 was dosed by itself (Treatment 1) and in the presence of a medication that raises gastric pH (Treatment 2).

Series [2] is described as follows: Human clinical biocomparison study: oral absorption from grazoprevir and Formulation 3 with and without pH-raising medication. The following applies: in vivo, 100 mg grazoprevir/50 mg Compound I, healthy subjects. Here is the method:
The Formulation 2 spray dried intermediate was blended and roller compacted along with microcrystalline cellulose, lactose, croscarmellose sodium, sodium chloride, colloidal silicon dioxide, and magnesium stearate. Only half of the magnesium stearate was added prior to roller compaction. The second half of the magnesium stearate and the remaining croscarmellose sodium was added after roller compaction and the resulting powder mix was blended further.
The oral absorption obtained from grazoprevir and Formulation 3 with (Treatment 2) and without (Treatment 1) co-administration of a pH-raising medication was evaluated as part of human clinical study.

[3] abbreviates: Treatment 1: Formulation 1 dosed by itself.
Where [4] appears, read: Treatment 1: grazoprevir and Formulation 3 without pH-raising medication.

For the compound `COC(=O)N[C@H](C(=O)N1CCC[C@H]1c1nc(-c2ccc3c(c2)O[C@@H](c2ccccc2)n2c-3cc3cc(-c4c[nH]c([C@@H]5CCCN5C(=O)[C@@H](NC(=O)OC)C(C)C)n4)ccc32)c[nH]1)C(C)C` [Compound I, dimethyl N,N′-([(6S)-6-phenylindolo[1,2-c][1,3]benzoxazine-3,10-diyl]bis {1H-imidazole-5,2-diyl-(2S)-pyrrolidine-2,1-diyl[(2S)-3-methyl-l-oxobutane-1,2-diyl]})dicarbamate], the AUC(0-inf) turned out to be 3.77 µM·h in series [1] (setting [3]); 1.57 µM·h in series [1] (Treatment 2: Formulation 1 with pH-raising medication); 1.97 µM·h in series [2] (setting [4]); 1.79 µM·h in series [2] (Treatment 2: grazoprevir and Formulation 3 with pH-raising medication). Also, the Cmax in series [1] (setting [3]) was 216 nM; in series [2] (setting [4]) it was 102 nM.

For orientation: AUC(0-inf) means total exposure, with the tail of the curve extrapolated. A word on the Cmax: it is the peak of the concentration-time curve.
